Data set [1] concerns the target T1, human cloned 5-HT6 receptors (Homo sapiens, UniProt P50406).
T1 construct: expressed in transfected cells; host or cells: Hela cells
Kind of data set: 5-HT6 binding affinity, [3H]-LSD displacement on membranes of Hela cells expressing human cloned 5-HT6 receptors. The conditions noted are these: read-out: 5-HT6 Binding Ki.

[2] abbreviates: [3H]-LSD 3.0 nM, Hela cell membranes, 120 min at room temperature.

Like-named read-outs stand apart in the source and are kept apart here.

T1 sequence (P50406 whole entry): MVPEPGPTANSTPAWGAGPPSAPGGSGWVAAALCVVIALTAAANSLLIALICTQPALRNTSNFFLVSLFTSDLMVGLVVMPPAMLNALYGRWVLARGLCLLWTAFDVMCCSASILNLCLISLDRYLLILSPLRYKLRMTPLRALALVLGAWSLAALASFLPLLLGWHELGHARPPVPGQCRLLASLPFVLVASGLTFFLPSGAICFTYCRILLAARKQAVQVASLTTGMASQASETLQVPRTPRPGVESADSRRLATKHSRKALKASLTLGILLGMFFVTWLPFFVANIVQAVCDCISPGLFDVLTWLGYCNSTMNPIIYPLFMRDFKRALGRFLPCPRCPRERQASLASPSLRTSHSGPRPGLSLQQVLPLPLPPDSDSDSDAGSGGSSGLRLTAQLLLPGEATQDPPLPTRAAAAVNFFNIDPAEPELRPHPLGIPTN

As usually defined, the melting point is the temperature, or range, at which the solid turns liquid. For orientation: Ki means a dissociation constant, usually derived from enzyme kinetics or from competition with a known ligand. `COc1ccc2c(n1)c(S(=O)(=O)c1ccc(Br)cc1)cn2CCN(C)C` [Example 78] displayed a melting point of 225 to 226 °C. The inhibitory constant (Ki) in data set [1] (setting [2]) was found to be 4 nM.

With `CNCCn1cc(S(=O)(=O)c2c(Cl)nc3sccn23)c2cccnc21` [Example 58], the melting point lay within 182 to 186 °C. The Ki in data set [1] (setting [2]) was found to be 1 nM.

On to `CN(C)CCn1cc(S(=O)(=O)c2cccc(C#N)c2)c2cccnc21` [Example 44], for which the melting point is 148 to 150 °C. The inhibitory constant (Ki) in data set [1] (setting [2]) is 63 nM.

`CNCCn1cc(S(=O)(=O)c2cccc(F)c2)c2cccnc21` [Example 59]: the melting point fell in the range of 255 to 260 °C. The Ki in data set [1] is 1 nM.

Consider `Cc1c(S(=O)(=O)c2ccc3ccccc3c2)c2cccnc2n1CCN(C)C` [Example 45], for which the melting point lay within 238 to 240 °C. Besides, in data set [1] (setting [2]), the Ki is 10 nM.

In turn, `Cc1cccc(S(=O)(=O)c2cn(CCN(C)C)c3ncccc23)c1` [Example 40] had a melting point of 195 to 197 °C. Further, the inhibition constant (Ki) in data set [1] (setting [2]) worked out at 10 nM.

Turning to `COc1ccc2c(n1)c(S(=O)(=O)c1cccc3ccccc13)cn2CCN(C)C` [Example 80], the melting point is 233 to 235 °C. In data set [1] (setting [2]), the Ki is 2 nM.

`CN(C)CCn1cc(S(=O)(=O)c2ccccc2)c2nc(Cl)ccc21` [Example 81] registered a melting point of 244 to 246 °C. For the same compound, the inhibition constant (Ki) in data set [1] (setting [2]) was 214 nM.

The record behind these values is patent US7585873B2, “1-(aminoalkyl)-3-sulfonylazaindoles as 5-hydroxytryptamine-6 ligands” (Wyeth, priority 2002, dated 2009).
